Laboratory results: ChEMBL document CHEMBL4406802, “Human disorders associated with inflammation and the evolving role of natural products to overcome” (Eur J Med Chem, 2019)

Test system: not listed separately
Test: Inhibition of TNFalpha-induced NFkappaB (unknown origin) activation expressed in mouse NIH-3T3 cells […] followed by TNFalpha addition measured after 6 hrs by luciferase reporter gene assay
Format: cell-based
Settings: NIH3T3

Compound | IC50 [µM]
C=C(CO)C(=O)O[C@H]1C[C@@H]2[C@@H]([C@@H](O)[C@@H]1C(=C)C(=O)OC)[C@H](C=O)CC[C@H]2O | > 50
C=C[C@]1(C)C[C@H](OC(=O)C(=C)CO)[C@H]2C(=C)C(=O)O[C@@H]2[C@H]1C(=C)C=O | 3.6
C=C[C@]1(C)C[C@H](OC(=O)C(=C)CO)[C@H]2C(=C)C(=O)O[C@@H]2[C@H]1C(=C)CO | 22.5
C=C[C@]1(C)C[C@H](OC(=O)C(=C)CO)[C@@H](C(=C)C(=O)OC)[C@H](O)[C@H]1C(=C)CO | 45
C=C1C(=O)O[C@@H]2/C=C(\CO)CC/C=C(\C)C[C@H](OC(=O)/C(=C/C)CO)[C@@H]12 | 42.1
C=C(CO)C(=O)O[C@H]1C/C(C)=C/CC/C(CO)=C/[C@H]2OC(=O)C(=C)[C@H]12 | 8.6

Test system: RAW264.7
Test: Antiinflammatory activity in mouse RAW264.7 cells assessed as inhibition of LPS-induced nitric oxide production at 25 uM relative to control
Format: functional
Settings: not given

Compound | inhibition at 25 µM [%]
C=C1C(=O)O[C@@H]2C[C@]3(C)C(O)CCC(C)C3(O)C[C@H]12 (some centres not stated) | 37.1
CC1=C2C[C@H]3[C@@H](C[C@]2(C)C(O)CC1=O)OC(=O)[C@@H]3C (some centres not stated) | 23.6
C=C1C(=O)OC2CC(C)=C(C(C)CCCOC(C)=O)C(OC(C)=O)C12 (configuration not stated) | 68.9
CC1CCC(O)[C@@]2(C)C[C@H]3OC(=O)[C@H](C)[C@H]3C=C12 (some centres not stated) | 14.6
C=C1C(=O)O[C@@H]2C[C@@]3(C)C(=C(C)C(O)CC3O)C[C@H]12 (some centres not stated) | 23.8

Biological target: T1, Prostaglandin G/H synthase 2 (Homo sapiens) (UniProt P35354)
T1 sequence (whole entry): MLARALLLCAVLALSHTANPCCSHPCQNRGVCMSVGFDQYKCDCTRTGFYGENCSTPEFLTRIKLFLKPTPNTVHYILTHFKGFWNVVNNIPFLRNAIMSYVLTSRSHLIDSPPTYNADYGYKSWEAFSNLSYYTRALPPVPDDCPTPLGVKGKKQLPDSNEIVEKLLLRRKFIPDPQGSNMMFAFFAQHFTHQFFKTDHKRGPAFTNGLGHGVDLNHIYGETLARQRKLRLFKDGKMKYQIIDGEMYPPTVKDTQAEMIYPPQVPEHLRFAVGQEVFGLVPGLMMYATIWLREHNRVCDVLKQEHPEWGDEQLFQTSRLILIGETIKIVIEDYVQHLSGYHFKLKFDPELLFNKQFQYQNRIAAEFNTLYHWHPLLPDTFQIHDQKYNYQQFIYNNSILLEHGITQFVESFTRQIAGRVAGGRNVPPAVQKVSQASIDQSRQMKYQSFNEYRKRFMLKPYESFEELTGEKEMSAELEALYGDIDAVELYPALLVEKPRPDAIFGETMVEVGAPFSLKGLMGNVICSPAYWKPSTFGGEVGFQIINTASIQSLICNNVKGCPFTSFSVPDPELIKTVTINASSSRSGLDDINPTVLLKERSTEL
Test: Inhibition of N-terminal His6-tagged recombinant human COX2 expressed in baculovirus infected sf21 cells at 20 uM relative to control
Settings: not given

Compound | inhibition [%]
C=C1C(=O)O[C@@H]2[C@H]3[C@@H](C)C(=O)C[C@H]3C(=C)CC[C@@H]12 | 98.6
C=C1[C@@H]2[C@H]3OC(=O)C(=C)[C@@H]3CCC(=C)[C@@H]2C[C@@H]1O | 97

Biological target: Nitric oxide synthase, inducible (Homo sapiens, UniProt P35228)
Sequence (P35228 whole entry): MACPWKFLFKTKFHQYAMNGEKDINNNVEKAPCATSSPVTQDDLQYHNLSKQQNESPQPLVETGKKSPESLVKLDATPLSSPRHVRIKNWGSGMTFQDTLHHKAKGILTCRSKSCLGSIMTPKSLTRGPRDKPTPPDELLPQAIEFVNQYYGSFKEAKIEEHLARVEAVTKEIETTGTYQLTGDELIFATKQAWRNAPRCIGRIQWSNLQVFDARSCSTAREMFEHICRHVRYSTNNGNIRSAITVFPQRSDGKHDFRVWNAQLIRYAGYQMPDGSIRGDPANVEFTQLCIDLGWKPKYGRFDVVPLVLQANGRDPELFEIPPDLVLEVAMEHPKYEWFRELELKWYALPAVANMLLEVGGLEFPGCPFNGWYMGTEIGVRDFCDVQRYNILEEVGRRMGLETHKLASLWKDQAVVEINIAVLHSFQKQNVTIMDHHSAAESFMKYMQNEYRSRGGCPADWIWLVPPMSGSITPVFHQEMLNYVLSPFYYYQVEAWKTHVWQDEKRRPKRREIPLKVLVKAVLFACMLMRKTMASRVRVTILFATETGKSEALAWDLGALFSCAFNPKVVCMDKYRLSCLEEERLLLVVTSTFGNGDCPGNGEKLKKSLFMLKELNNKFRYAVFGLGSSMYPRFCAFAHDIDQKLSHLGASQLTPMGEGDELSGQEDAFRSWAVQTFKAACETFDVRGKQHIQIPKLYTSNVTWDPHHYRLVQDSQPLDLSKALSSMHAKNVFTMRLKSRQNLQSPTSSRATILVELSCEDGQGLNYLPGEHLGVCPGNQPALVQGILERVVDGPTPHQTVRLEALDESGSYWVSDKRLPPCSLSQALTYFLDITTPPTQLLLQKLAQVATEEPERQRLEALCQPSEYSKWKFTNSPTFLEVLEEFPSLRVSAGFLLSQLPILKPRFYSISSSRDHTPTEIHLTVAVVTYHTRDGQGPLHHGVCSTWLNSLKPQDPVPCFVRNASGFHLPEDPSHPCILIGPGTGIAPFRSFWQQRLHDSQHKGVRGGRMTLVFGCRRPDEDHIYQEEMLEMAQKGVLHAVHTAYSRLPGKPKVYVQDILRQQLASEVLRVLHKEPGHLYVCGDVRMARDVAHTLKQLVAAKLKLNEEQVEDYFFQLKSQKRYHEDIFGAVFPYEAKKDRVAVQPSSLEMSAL
Test: Inhibition of iNOS (unknown origin) at 20 uM relative to control
Settings: not given

Compound | inhibition [%]
C=C1C(=O)O[C@@H]2[C@H]3[C@@H](C)C(=O)C[C@H]3C(=C)CC[C@@H]12 | 100
COc1cc(C2OCC3C(c4ccc(O)c(OC)c4)OCC23)ccc1O (configuration not stated) | 49.1
C=C1[C@@H]2[C@H]3OC(=O)C(=C)[C@@H]3CCC(=C)[C@@H]2C[C@@H]1O | 99.4

Biological target: T2, Prostaglandin G/H synthase 2 (Homo sapiens, UniProt P35354)
T2 sequence (P35354 whole entry): T1 sequence (whole entry)
Test: Inhibition of COX2 (unknown origin)
Settings: not given

Compound | IC50 [µM]
C=C(C)[C@@H]1CC[C@]2(C)CC[C@]3(C)[C@H](CCC4[C@@]5(C)[C@H](O)C[C@H](O)C(C)(C)[C@@H]5CC[C@]43C)[C@@H]12 (some centres not stated) | 450
COOC[C@@]1(C)CC[C@]2(C)CC[C@]3(C)[C@@H]4CC(=O)c5cc(OC)c(O)cc5[C@]4(C)CC[C@@]3(C)C2C1 (some centres not stated) | 660
COOC[C@@]1(C)CC[C@]2(C)CC[C@]3(C)[C@@H]4CCc5cc(O)c(O)cc5[C@]4(C)CC[C@@]3(C)C2C1 (some centres not stated) | 430

Test system: RAW264.7
Test: Antiinflammatory activity in mouse RAW264.7 cells assessed as inhibition of LPS-induced nitric oxide production after 24 hrs by Griess reagent based assay relative to control
Format: functional, cell-based
Settings: RAW264.7, 24 h

Compound | IC50 [µM]
C[C@@H]1O[C@@H](O[C@H]2[C@H](O[C@H]3[C@H](O[C@H]4CC[C@@]5(C)[C@@H](CC[C@]6(C)[C@@H]5CC=C5[C@@H]7C[C@]8(C)C[C@@H](OC8=O)[C@]7(C)CC[C@]56C)[C@@]4(C)CO)O[C@H](C(=O)O)[C@@H](O)[C@@H]3O)OC[C@@H](O)[C@@H]2O)[C@H](O)[C@H](O)[C@H]1O | 18.8
C[C@@H]1O[C@@H](O[C@H]2[C@H](O[C@H]3[C@H](O[C@H]4CC[C@@]5(C)[C@@H](CC[C@]6(C)[C@@H]5CC=C5[C@@H]7C[C@]8(C)C[C@@H](OC8=O)[C@]7(C)CC[C@]56C)[C@@]4(C)CO)O[C@H](C(=O)O)[C@@H](O)[C@@H]3O)O[C@H](CO)[C@H](O)[C@@H]2OC=O)[C@H](O)[C@H](O)[C@H]1O | 16.1
C[C@@H]1[C@H](O)CC[C@]2(C(=O)O)CC[C@]3(C)C(CC[C@@H]4[C@@]5(C)CC[C@H](O[C@@H]6O[C@H](C(=O)O)[C@@H](O)[C@H](O)[C@H]6O[C@@H]6O[C@H](CO)[C@H](O)[C@H](O)[C@H]6O[C@@H]6O[C@@H](C)[C@H](O)[C@@H](O)[C@H]6O)C(C)(C)[C@@H]5CC[C@]43C)[C@H]12 (some centres not stated) | 13.2

Test system: RAW264.7
Test: Cytotoxicity against mouse RAW264.7 cells assessed as cell viability after 24 hrs by MTT assay relative to control
Format: functional
Settings: not given

Compound | Activity [%]
C[C@@H]1O[C@@H](O[C@H]2[C@H](O[C@H]3[C@H](O[C@H]4CC[C@@]5(C)[C@@H](CC[C@]6(C)[C@@H]5CC=C5[C@@H]7C[C@]8(C)C[C@@H](OC8=O)[C@]7(C)CC[C@]56C)[C@@]4(C)CO)O[C@H](C(=O)O)[C@@H](O)[C@@H]3O)OC[C@@H](O)[C@@H]2O)[C@H](O)[C@H](O)[C@H]1O | 97.6
C[C@@H]1O[C@@H](O[C@H]2[C@H](O[C@H]3[C@H](O[C@H]4CC[C@@]5(C)[C@@H](CC[C@]6(C)[C@@H]5CC=C5[C@@H]7C[C@]8(C)C[C@@H](OC8=O)[C@]7(C)CC[C@]56C)[C@@]4(C)CO)O[C@H](C(=O)O)[C@@H](O)[C@@H]3O)O[C@H](CO)[C@H](O)[C@@H]2OC=O)[C@H](O)[C@H](O)[C@H]1O | 95.2
C[C@@H]1[C@H](O)CC[C@]2(C(=O)O)CC[C@]3(C)C(CC[C@@H]4[C@@]5(C)CC[C@H](O[C@@H]6O[C@H](C(=O)O)[C@@H](O)[C@H](O)[C@H]6O[C@@H]6O[C@H](CO)[C@H](O)[C@H](O)[C@H]6O[C@@H]6O[C@@H](C)[C@H](O)[C@@H](O)[C@H]6O)C(C)(C)[C@@H]5CC[C@]43C)[C@H]12 (some centres not stated) | 96.8

Test system: RAW264.7
Test: Antiinflammatory activity against mouse RAW264.7 cells assessed as inhibition of LPS induced iNOS at 30 uM preincubated for 1 hr followed by LPS stimulation measured after 18 hrs relative to control
Format: functional
Settings: not given

Compound | inhibition at 30 µM [%]
CC1=C2C3=CC[C@@H]4[C@@]5(C)CC[C@H](O[C@@H]6OC[C@@H](O)[C@H](O)[C@H]6O)C(C)(C)[C@@H]5CC[C@@]4(C)[C@]3(C)CC[C@@]2(C(=O)O[C@@H]2O[C@H](CO)[C@@H](O)[C@H](O)[C@H]2O)CC[C@H]1C | 64.9
CC1=C2C3=CC[C@@H]4[C@@]5(C)CC[C@H](O[C@@H]6OC[C@@H](O)[C@H](O)[C@H]6O[C@@H]6O[C@H](CO)[C@@H](O)[C@H](O)[C@H]6O)C(C)(C)[C@@H]5CC[C@@]4(C)[C@]3(C)CC[C@@]2(C(=O)O[C@@H]2O[C@H](CO)[C@@H](O)[C@H](O)[C@H]2O)CC[C@H]1C | 75
CC1(C)CC[C@]2(C(=O)O[C@@H]3O[C@H](CO)[C@@H](O)[C@H](O)[C@H]3O)CC[C@]3(C)C(=CC[C@@H]4[C@@]5(C)CC[C@H](O[C@@H]6O[C@H](C(=O)O)[C@@H](O)[C@H](O)[C@H]6O)C(C)(C)[C@@H]5CC[C@]43C)[C@@H]2C1 [CHIKUSETSUSAPONIN IVA] | 92.8
CC1=C(C)[C@H]2C3=CC[C@@H]4[C@@]5(C)CC[C@H](O[C@@H]6OC[C@@H](O)[C@H](O)[C@H]6O[C@@H]6O[C@H](CO)[C@@H](O)[C@H](O)[C@H]6O)C(C)(C)[C@@H]5CC[C@@]4(C)[C@]3(C)CC[C@@]2(C(=O)O[C@@H]2O[C@H](CO)[C@@H](O)[C@H](O)[C@H]2O)CC1 | 72

Biological target: T3, Prostaglandin G/H synthase 1 (Ovis aries, UniProt P05979)
T3 sequence (P05979 whole entry): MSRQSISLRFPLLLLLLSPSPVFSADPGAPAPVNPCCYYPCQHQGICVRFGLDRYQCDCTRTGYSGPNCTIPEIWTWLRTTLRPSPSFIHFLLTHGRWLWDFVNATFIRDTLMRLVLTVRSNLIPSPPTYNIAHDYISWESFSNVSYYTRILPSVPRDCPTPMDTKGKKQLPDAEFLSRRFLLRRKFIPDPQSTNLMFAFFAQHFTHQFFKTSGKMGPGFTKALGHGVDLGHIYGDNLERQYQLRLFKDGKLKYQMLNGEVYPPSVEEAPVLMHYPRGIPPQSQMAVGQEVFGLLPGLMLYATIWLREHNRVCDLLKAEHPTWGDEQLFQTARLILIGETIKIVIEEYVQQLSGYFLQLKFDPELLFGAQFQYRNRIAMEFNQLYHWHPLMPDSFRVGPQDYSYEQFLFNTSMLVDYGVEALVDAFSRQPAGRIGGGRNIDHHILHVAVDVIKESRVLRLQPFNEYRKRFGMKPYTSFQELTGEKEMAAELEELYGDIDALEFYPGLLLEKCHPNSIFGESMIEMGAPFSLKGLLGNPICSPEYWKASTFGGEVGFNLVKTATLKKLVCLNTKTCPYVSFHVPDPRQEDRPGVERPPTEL
Test: Inhibition of ovine COX1
Settings: not given

Compound | IC50 [µM]
O=C(/C=C/c1ccc(O)c(O)c1)OC(C(=O)O)C(OC(=O)/C=C/c1ccc(O)c(O)c1)C(OC(=O)/C=C/c1ccc(O)c(O)c1)C(OC(=O)/C=C/c1ccc(O)c(O)c1)C(=O)O (configuration not stated) | 2.09
O=C(/C=C/c1ccc(O)c(O)c1)OC1CC(O)(C(=O)O)CC(O)C1OC(=O)/C=C/c1ccc(O)c(O)c1 (configuration not stated) | 5.87
O=C(/C=C/c1ccc(O)c(O)c1)OC1CC(O)(C(=O)O)CC(OC(=O)/C=C/c2ccc(O)c(O)c2)C1O (configuration not stated) | 4.96

Test system: BV-2
Test: Antiinflammatory activity in mouse BV2 cells assessed as inhibition of LPS-induced nitric oxide production at 10 uM relative to control
Format: functional
Settings: not given

Compound | inhibition at 10 µM [%]
COc1cc(CC2C(=O)OCC2Cc2cc(OC)c(O)c(C(CO)CO)c2)ccc1OC1O[C@H](CO)[C@@H](O)[C@H](O)[C@H]1O (some centres not stated) | 71.6
COc1ccc(C(O)C2COC(=O)C2Cc2ccc(OC3O[C@H](CO)[C@@H](O)[C@H](O)[C@H]3O)c(OC)c2)cc1OC (some centres not stated) | 87.8
COc1cc(CC2C(=O)OCC2C(O)c2ccc(OC)c(OC)c2)ccc1O (configuration not stated) | 63.3
COc1cc(/C=C/C(=O)CC(=O)/C=C/c2ccc(O)c(OC)c2)ccc1O [CURCUMIN] | 53
COc1ccc(CC2COC(=O)C2Cc2cc(C(=O)O)oc(=O)c2)cc1OC (configuration not stated) | 75.5

Test system: RAW264.7
Test: Antiinflammatory activity in mouse RAW264.7 cells assessed as inhibition of LPS-induced nitric oxide production at […] after 24 hrs by Griess reagent based assay relative to control
Format: functional
Set-up: dose or concentration left out as unconfirmed
Settings: RAW264.7, 24 h

Compound | inhibition [%]
O=c1c2ccc(O)c(O)c2oc2cc(O)cc(O)c12 | 78.9
CC(C)=CCOc1cc(O)c2c(=O)c3cc(OCC=C(C)C)c(OCC=C(C)C)cc3oc2c1 | 81.4
CC(C)=CC[C@@H]1C[C@]23C[C@@H](CC=C(C)C)C(C)(C)[C@](CC=C(C)C)(C(=O)C(C(=O)c4ccc(O)c(O)c4)=C2OC1(C)C)C3=O | 92.9
CC(C)=CCOc1cc(O)c2c(=O)c3cc(OCC=C(C)C)c(O)cc3oc2c1 | 84.2
COc1cc(C)c2c(=O)c3c(O)cc(OC)cc3oc2c1 [LICHEXANTHONE] | 32
